According to article PMC10945480 (Journal of Medicinal Chemistry, 2024):
Where two headings read alike, the source gives them in different places.

Assays:
[1] = tested on: washed human platelets; assay: Collagen-induced platelet aggregation; format: cell-based; settings: for IC50: Platelet, washed human platelets, collagen (5 μg/mL)
Method: (§1) The antiplatelet effects of the JUG derivatives were evaluated by measuring human platelet aggregation, which can be regulated by cell surface PDI. Platelet aggregation was induced with platelet activators U46619 (a mimetic of thromboxane A2) and collagen (binding to GPVI).
(§2) Washed human platelets were prepared from acid citrate dextrose-anticoagulated blood of healthy human volunteers as described previously.[73] The study was approved by the Institutional Review Board of Kaohsiung Medical University, and informed consent was obtained from every volunteer. Platelet aggregation was measured by using a turbidimetric aggregometer (Chrono-Log Co., USA) under stirring conditions (1200 rpm) at 37 °C. The extent of platelet aggregation was measured as the maximal increase of light transmission after the addition of the stimulators U46619 and collagen.[73] In the TCIPA assay, platelet aggregation was induced by A549 (1 × 10^4 cells/mL), MDA-MB-231 (1 × 10^2 cells/mL), or RPMI8226 (1 × 10^5 cells/mL) cancer cells in the presence of 0.375% plasma.[74]

[2] = Parallel artificial membrane permeability assay (PAMPA); settings: 50 μM, 25 ℃, 3 h, verapamil = 100%, ranitidine = 0%
Method: 1. Parallel artificial membrane permeability assay (PAMPA). […]
evolution instruments from pION Inc. In the PAMPA assay, a set of sandwich plates consists of a 96-well microtiter donor plate at the bottom and a 96-well filter acceptor plate on the top from […]
The stock solutions of samples were prepared at 10 mM concentrations in DMSO and stored at 0 ℃ before use. Before being added to a 96-well filter plate, the stock solution was diluted first with buffer to achieve a final sample concentration of 50 μM and to reduce the DMSO concentration below 1% (v/v). Each well of the 96-well donor plate was filled with a 200 μL diluted sample solution (50 μM), and the 96-well filter acceptor plate was then wetted with a 5 μL 2% w/v dioleyoylphosphatidylcholine (DOPC) in n-dodecane and subsequently placed on the donor wells.
Immediately, the acceptor wells were filled with 200 μL of buffer solution and the PAMPA plate sandwich was sealed and incubated at 25 ℃ for 3 h. After reaching the permeation time, the PAMPA plate sandwich was separated and transferred to 96-well UV plates respectively. The amounts of drugs in both the donor and acceptor compartments were measured by comparing the experimental spectra with the UV spectrum (220∼400 nm) obtained from reference standards.

[3] = tested on: breast cancer MDA-MB-231; assay: Cell viability, resazurin assay, MDA-MB-231; settings: for IC50: Homo sapiens, MDA-MB-231, 24 h, read-out: MDA-MB-231 IC50
Method: (§3) Cells were maintained in a humidified incubator at 37 °C in 5% CO2, and cell viability was determined with the resazurin assay (Cayman Chemical, USA) after the incubation with compounds for indicated concentrations and times or DMSO as control.[72]

[4] = tested on: human vascular endothelial EA.hy926 cells; assay: Cell viability, resazurin assay, EA.hy926; settings: EA.hy 926, 24 h, read-out: EAhy926 IC50
Method: as §3

[5] = tested on: glioma U87; assay: Cell viability, resazurin assay, U87; settings: Homo sapiens, 24 h, read-out: U87 IC50
Method: as §3

[6] = tested on: lung cancer A549; assay: Cell viability, resazurin assay, A549; settings: for IC50: Homo sapiens, A549, 24 h, read-out: A549 IC50
Method: as §3

[7] = biological target: platelet surface PDI (Homo sapiens, UniProt P07237); assay: Cell surface PDI reductase activity on intact human platelets (Di-E-GSSG assay); settings: read-out: Surface PDI IC50; intact human platelets, Di-E-GSSG, 5 μM DTT
platelet surface PDI, sequence (P07237 18-508): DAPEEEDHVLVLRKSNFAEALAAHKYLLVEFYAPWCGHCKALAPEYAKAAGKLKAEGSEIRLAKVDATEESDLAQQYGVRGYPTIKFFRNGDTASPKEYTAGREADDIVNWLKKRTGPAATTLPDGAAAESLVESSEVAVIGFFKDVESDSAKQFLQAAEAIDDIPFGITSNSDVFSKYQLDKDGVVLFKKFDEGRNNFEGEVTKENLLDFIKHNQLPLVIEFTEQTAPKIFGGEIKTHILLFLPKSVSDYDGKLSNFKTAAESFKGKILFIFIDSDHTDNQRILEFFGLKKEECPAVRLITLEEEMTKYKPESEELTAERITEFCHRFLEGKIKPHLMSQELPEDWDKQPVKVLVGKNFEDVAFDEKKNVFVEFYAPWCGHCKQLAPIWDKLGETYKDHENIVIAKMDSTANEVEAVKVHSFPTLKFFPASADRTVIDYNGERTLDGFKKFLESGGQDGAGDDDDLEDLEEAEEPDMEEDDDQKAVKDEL
Method: In this assay, a nonfluorescent substrate, dieosin glutathione disulfide (Di-E-GSSG), was reduced into a fluorescent product eosin-glutathione (E-GSH) by platelet surface PDI in the presence of 5 μM dithiothreitol (DTT).

[8] = tested on: multiple myeloma RPMI8226; assay: Cell viability, resazurin assay, RPMI8226; settings: for S.I. (EAhy926/RPMI8226), selectivity index: 24 h IC50 ratio; for IC50: Homo sapiens
Method: as §3

[9] = tested on: washed human platelets; assay: U46619-induced platelet aggregation; format: cell-based; settings: for IC50: Platelet, washed human platelets, U46619 (1 μM)
Method: as §1, §2

[10] = RPMI-8226, 24 h, read-out: RPMI8226 IC50
[11] = concentrations up to 40 μM, unpublished data

Row | Compound | IC50 [1] | Permeability (%) [2] | IC50 [3] | IC50 [4] | IC50 [5] | IC50 [6] | IC50 [7] | S.I. (EAhy926/RPMI8226), selectivity index [8] | IC50 [8, 10] | IC50 [9] | IC50 ([8]; RPMI-8226, 72 h, read-out: RPMI8226 IC50, 72 h) | effect on collagen-induced platelet aggregation [1, 11] | effect on cell viability of MDA-MB-231 ([3]; unpublished data) | effect on cell viability of A549 ([6]; unpublished data) | effect on cell viability of RPMI8226 ([8]; unpublished data) | effect on U46619-induced platelet aggregation [9, 11]
1 | CCCCCSC1=CC(=O)c2cccc(O)c2C1=O [Compound 16, 2-(Pentylthio)-8-hydroxynaphthalene-1,4-dione] | 2.57 ± 0.5 µM | 91.9% | 10.7 ± 1.26 µM | > 20 µM | > 20 µM | > 50 µM | 0.88 ± 0.12 µM | >10.6 | 1.88 ± 0.08 µM | 7.13 ± 1.82 µM |  |  |  |  |  | 
2 | CN(C)C1=CC(=O)c2cccc(O)c2C1=O [Compound 23, 2-(Dimethylamino)-8-hydroxynaphthalene-1,4-dione] | > 20 µM | 16.7% | > 100 µM |  | > 20 µM | > 100 µM | > 20 µM |  | > 20 µM | > 20 µM |  |  |  |  |  | 
3 | CN(C)C1=CC(=O)c2c(O)cccc2C1=O [Compound 24, 3-(Dimethylamino)-8-hydroxynaphthalene-1,4-dione] | 16 ± 2.11 µM | 30.2% | > 100 µM |  | > 20 µM | > 100 µM | > 20 µM |  | > 20 µM | > 20 µM |  |  |  |  |  | 
4 | O=C1C=C(O)C(=O)c2c(O)cccc21 [Compound 25, 2,8-Dihydroxynaphthalene-1,4-dione] | > 20 µM | 5.21% | > 100 µM |  | > 20 µM | > 100 µM | > 20 µM |  | > 20 µM | > 20 µM |  |  |  |  |  | 
5 | O=C1C(O)=CC(=O)c2c(O)cccc21 [Compound 26, 3,8-Dihydroxynaphthalene-1,4-dione] | > 20 µM | 5.17% | > 100 µM |  | > 20 µM | > 100 µM | > 20 µM |  | > 20 µM | > 20 µM |  |  |  |  |  | 
6 | COc1ccc(SC2=C(O)C(=O)c3c(O)cccc3C2=O)cc1 [Compound 27, 2,8-Dihydroxy-3-((4-methoxyphenyl)thio)naphthalene-1,4-dione] | > 20 µM | 1.08% | > 100 µM | > 20 µM | > 20 µM | > 20 µM | > 20 µM |  | > 20 µM | 13.7 ± 0.89 µM |  |  |  |  |  | 
7 | COc1ccc(SC2=C(O)C(=O)c3cccc(O)c3C2=O)cc1 [Compound 28, 3,8-Dihydroxy-2-((4-methoxyphenyl)thio)naphthalene-1,4-dione] | > 20 µM | 9.28% | > 100 µM |  | > 20 µM | > 100 µM | > 20 µM |  | > 20 µM | > 20 µM |  |  |  |  |  | 
8 | CNC(=C[N+](=O)[O-])NCCSCc1ccc(CN(C)C)o1 [Ranitidine, reference compound] |  | 0% |  |  |  |  |  |  |  |  |  |  |  |  |  | 
9 | CC(C)C[C@H](NC(=O)[C@H](Cc1ccccc1)NC(=O)c1cnccn1)B(O)O [bortezomib, reference compound] |  |  | 0.46 ± 0.01 µM | 0.09 ± 0.01 µM | 7.86 ± 1.23 µM | 0.69 ± 0.2 µM |  | 0.017 | 5.24 ± 0.79 µM |  | 0.08 µM |  |  |  |  | 
10 | CC(C)(C)CN(C(=O)CCl)C1CCS(=O)(=O)C1 (stereo not drawn) [sulfopin, reference compound] |  |  |  |  |  |  |  |  |  |  |  | does not show any effect | no significant impacts | no significant impacts | no significant impacts | does not show any effect
